The target of this assay is T1, P-glycoprotein (PGP/MDR1) (Homo sapiens, UniProt P08183).
T1 construct: gene ABCB1; recombinant human PGP in membrane vesicles (Human MDR1 vesicles)
In words: ATPase stimulation (ADP-Glo Max) in human MDR1 vesicles; also Calcein-AM retention in HepG2 cells. The assay is classed as biochemical.

T1 sequence (P08183 whole entry): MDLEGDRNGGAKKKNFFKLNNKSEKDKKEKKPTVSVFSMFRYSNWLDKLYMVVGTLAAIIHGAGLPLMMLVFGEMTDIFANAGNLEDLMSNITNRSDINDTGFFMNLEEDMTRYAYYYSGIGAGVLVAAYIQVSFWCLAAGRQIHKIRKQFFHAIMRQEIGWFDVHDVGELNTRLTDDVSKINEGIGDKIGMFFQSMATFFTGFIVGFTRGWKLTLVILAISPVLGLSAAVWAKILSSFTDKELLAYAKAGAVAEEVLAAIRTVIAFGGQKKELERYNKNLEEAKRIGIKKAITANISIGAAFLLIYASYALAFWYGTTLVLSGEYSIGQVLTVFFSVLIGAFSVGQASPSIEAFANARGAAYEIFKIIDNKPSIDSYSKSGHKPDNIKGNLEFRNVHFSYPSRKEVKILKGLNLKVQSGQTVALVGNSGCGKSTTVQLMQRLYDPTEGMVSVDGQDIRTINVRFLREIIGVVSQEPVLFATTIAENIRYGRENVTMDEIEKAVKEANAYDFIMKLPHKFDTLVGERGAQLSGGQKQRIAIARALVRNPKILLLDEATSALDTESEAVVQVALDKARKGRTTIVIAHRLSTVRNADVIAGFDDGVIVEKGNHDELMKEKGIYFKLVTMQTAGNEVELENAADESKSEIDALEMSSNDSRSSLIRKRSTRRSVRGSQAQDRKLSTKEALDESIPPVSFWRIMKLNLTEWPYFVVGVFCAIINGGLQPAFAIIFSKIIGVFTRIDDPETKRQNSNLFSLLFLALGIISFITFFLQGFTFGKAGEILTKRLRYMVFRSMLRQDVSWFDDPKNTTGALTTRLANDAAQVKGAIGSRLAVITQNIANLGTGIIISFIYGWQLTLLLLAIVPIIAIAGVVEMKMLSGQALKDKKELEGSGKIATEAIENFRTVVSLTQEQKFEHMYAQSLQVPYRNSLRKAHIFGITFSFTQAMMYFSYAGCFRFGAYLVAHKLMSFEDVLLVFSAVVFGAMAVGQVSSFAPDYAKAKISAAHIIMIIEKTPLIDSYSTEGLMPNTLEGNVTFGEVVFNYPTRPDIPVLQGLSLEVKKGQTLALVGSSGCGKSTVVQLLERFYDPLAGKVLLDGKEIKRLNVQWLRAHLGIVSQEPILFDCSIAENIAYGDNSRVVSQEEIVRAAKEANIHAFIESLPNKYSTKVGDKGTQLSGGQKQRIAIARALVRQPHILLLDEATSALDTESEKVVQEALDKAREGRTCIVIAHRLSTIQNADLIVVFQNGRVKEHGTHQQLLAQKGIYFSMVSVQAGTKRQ

As usually defined, the EC50 is the concentration needed to bring the measured effect to its halfway point. On to `OC[C@H]1O[C@H](O[C@]2(CCl)O[C@H](CCl)[C@@H](O)[C@@H]2O)[C@H](O)[C@@H](O)[C@H]1Cl` [Sucr, sucralose], for which the EC50 is 0.056 nM.
